Holding throughout (assay type): cell-based
The target of one assay is T1, TLR3 (Homo sapiens, UniProt O15455).
T1 sequence (O15455 24-904): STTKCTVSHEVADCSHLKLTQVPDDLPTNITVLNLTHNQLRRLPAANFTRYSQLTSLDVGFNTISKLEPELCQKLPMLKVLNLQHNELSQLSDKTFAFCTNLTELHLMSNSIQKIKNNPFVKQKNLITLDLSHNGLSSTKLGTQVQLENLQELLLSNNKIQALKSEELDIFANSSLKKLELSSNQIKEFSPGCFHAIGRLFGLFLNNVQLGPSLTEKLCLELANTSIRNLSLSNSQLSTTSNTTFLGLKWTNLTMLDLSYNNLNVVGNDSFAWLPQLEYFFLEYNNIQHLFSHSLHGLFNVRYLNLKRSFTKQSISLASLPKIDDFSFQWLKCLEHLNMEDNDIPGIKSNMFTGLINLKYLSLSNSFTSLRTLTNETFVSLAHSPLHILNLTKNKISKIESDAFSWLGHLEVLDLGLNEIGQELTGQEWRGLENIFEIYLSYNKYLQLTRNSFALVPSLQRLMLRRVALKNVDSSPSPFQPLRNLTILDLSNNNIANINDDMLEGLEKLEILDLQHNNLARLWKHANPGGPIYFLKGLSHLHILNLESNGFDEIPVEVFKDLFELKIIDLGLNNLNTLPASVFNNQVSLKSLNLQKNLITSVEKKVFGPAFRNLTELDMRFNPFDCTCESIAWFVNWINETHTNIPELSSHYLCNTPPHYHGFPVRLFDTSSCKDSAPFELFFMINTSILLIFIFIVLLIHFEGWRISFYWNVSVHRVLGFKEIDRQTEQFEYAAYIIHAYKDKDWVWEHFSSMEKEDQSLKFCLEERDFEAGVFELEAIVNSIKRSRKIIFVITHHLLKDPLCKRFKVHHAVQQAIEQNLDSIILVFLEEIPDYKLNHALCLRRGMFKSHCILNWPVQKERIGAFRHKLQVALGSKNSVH
Description: TLR agonist IL-8 production in BEAS2B epithelial cells, TLR3. Further details: endogenous in cells; host or cells: BEAS2B. The conditions noted are these: poly IC, 48 h. The method, then: (§1) In this experiment, multiple TLRs were stimulated with defined TLR agonists for 48 h, and the IL-8 production was measured. In each case, the maximal stimulation by agonist is set at 100% and the antagonism by POPG or PI is expressed as the relative % response. The Controls consist of no treatment, or treatment with POPG, or phosphatidylcholine (POPC), or phosphatidylinositol (PI), in the absence of agonist as indicated. The agonists for the TLRs consist of Pam3Cys for TLR1/2, Mycoplasma pneumoniae membranes as an agonist for TLR2, Mycoplasma fermentans derived MALP2 as an agonist for TLR 2/6, double stranded RNA (poly IC) for TLR3, and bacterial flagellin (Fla) as an agonist for TLR5.
(§2) Monolayers of BEAS2B cells were challenged with the TLR1/2 agonist, Pam3Cys (25 ug/ml); the TLR 2/6 agonist MALP2 (10 ng/ml); the TLR2 agonist mycoplasma membrane (Mem) (1 ug/ml); the TLR3 agonist, poly I:C (0.1 ug/ml); and the TLR5 agonist, flagellin (100 ng/ml). For each agonist parallel incubations were performed containing 200 ug/ml POPG as liposomes, or 200 ug/ml POPG as nanodises as indicated.

The target in another assay is T2, TLR1 (Homo sapiens, UniProt Q15399).
T2 sequence (Q15399 25-786): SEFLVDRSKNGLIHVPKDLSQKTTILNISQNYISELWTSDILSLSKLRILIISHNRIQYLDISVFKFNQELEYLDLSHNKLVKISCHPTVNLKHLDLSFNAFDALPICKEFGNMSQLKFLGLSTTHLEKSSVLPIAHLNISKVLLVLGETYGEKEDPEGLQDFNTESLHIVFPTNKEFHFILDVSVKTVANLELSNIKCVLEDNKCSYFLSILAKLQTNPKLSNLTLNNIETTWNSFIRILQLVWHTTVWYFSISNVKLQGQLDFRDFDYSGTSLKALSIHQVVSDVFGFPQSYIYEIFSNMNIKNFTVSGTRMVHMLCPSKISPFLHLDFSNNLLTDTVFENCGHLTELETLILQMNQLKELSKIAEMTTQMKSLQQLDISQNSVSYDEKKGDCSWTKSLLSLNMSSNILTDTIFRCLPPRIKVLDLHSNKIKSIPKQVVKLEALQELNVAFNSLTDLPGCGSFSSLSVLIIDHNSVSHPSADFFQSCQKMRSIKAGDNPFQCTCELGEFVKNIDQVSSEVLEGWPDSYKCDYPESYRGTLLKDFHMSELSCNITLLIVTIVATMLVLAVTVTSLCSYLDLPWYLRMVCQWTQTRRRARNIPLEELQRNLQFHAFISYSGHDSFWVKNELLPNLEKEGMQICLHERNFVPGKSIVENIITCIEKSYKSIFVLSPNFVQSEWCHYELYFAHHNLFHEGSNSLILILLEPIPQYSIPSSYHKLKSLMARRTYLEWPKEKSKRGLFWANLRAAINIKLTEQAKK
The assay is described as follows: TLR agonist IL-8 production in BEAS2B epithelial cells, TLR1. Further details: endogenous in cells; host or cells: BEAS2B. The conditions noted are these: Pam3Cys, 48 h. The method, then: as §1, §2

For the next assay, the target named is T3, Toll-like receptor 3 (Homo sapiens, UniProt O15455).
T3 construct: endogenous in cells; host or cells: primary normal human bronchial epithelial (NHBE) cells
Description: polyIC IL-8 production in NHBE cells. The conditions noted are these: 24 hr. The method, then:
In this experiment, NHBE cells were stimulated with double stranded RNA (polyIC) and the IL-8 production was measured after an interval of 24 hr. The maximal stimulation by agonist is set at 100% and the antagonism by POPG is expressed as the relative % response. The Controls consist of no treatment, or treatment with POPG, in the absence of agonist as indicated.

Assay [1] deals with TNF-α stimulated macrophages. Description: IkBα degradation in TNF-α stimulated macrophages. The conditions noted are these: TNF-α 10 ng/ml. How it is done: Protein synthesis was measured by determining [^3H]-Leucine incorporation into trichloroacetic acid precipitable material in the presence and absence of 200 μg/ml POPG. No changes in protein synthesis occurred over a 6 hr period in POPG treated U937 cells compared to untreated cells in 3 independent experiments. […] In these studies, macrophages were treated with TNF-α (10 ng/ml) and the degradation of IkBα was measured. […] Collectively, these studies indicate that the actions of the anionic lipids upon LPS signaling are specific.

Here are results for two compounds from patent US10532066B2, “Surfactant lipids, compositions thereof, and uses thereof” (National Jewish Health, priority 2007, dated 2020).

phosphatidylinositol [PI]: the “activity of TLR3 (IL-8 production)” value on TLR3 is “inhibit”. Also, at TLR1, the “activity of TLR1 (IL-8 production)” value was “inhibit”.
Consider `CCCCCCCC/C=C\CCCCCCCC(=O)O[C@H](COC(=O)CCCCCCCCCCCCCCC)COP(=O)(O)OCC(O)CO` (stereo partly drawn) [POPG, palmitoyl-oleoyl-phosphatidylglycerol], for which the “activity of TLR3 (IL-8 production)” value is “inhibits” on Toll-like receptor 3 and “inhibit” at TLR3. The “IkBα degradation after TNF-α stimulation” value in assay [1] is given as “failed to alter”. In addition, the “activity of TLR1 (IL-8 production)” value on TLR1 is listed as “inhibit”.
